Test results published in paper PMC11598835 (Viruses, 2024).
Converted amounts (≈) assume the structure as drawn. Where two headings read alike, the source gives them in different places.

Columns and labels:
SARS-CoV-2 = settings: read-out: EC50, anti-SARS-CoV-2; cited from earlier work
in vitro = assay type: cell-based; settings: human
[1] = target: Recombinant SARS-CoV-2 Mpro (Severe acute respiratory syndrome coronavirus 2, UniProt P0DTD1); experiment: Protease inhibition FRET assay, Mpro; assay type: biochemical; settings: Mpro 1.5 μM, substrate 50 μM
[2] = target: Recombinant SARS-CoV-2 PLpro (Severe acute respiratory syndrome coronavirus 2, UniProt P0DTD1); experiment: biochemical; settings: FRET, PLpro 1 μM
physchem = assay type: physicochemical; settings: water, thermodynamic from solid
[3] = In vivo plasma pharmacokinetics in rats; settings: male, Wistar, ip, rat
[4] = test system: SARS-CoV-2 B.1 lineage isolate
[5] = test system: SARS-CoV-2 B.1 lineage isolate; experiment: microbe, parasite or virus in culture; settings: Severe acute respiratory syndrome coronavirus 2, Calu-3, 24 h
HIV-1 = test system: HIV-1; parameters: method as in ref 15 = [15]; settings: read-out: EC50, antiviral activity for HIV-1; cited from earlier work
[6] = cited from earlier work
[7] = read-out: Inhibition of Viral Replication in Calu-3 (%)
[8] = read-out: difference in SARS-CoV-2 inhibition compared to compound 4a

| Compound | CC50 at 72 h (in vitro) | IC50 [1] | IC50 [2] | SI (CC50/EC50) [4] | selectivity indexes (SI), conclusions [4] | inhibition at 10 µM [5, 7] | further results |
| --- | --- | --- | --- | --- | --- | --- | --- |
| CC(C)(C)[C@H](NC(=O)C(F)(F)F)C(=O)N1C[C@H]2[C@@H]([C@H]1C(=O)N[C@H](C#N)C[C@@H]1CCNC1=O)C2(C)C [Nirmatrelvir] |  |  |  |  |  |  | EC50 (SARS-CoV-2): 0.1 µM |
| O=C1c2ccccc2C(=O)c2c1[nH]c1ccccc21 [4a, 5H-Benzo[b]carbazole-6,11-dione] | > 200 µM | 0.11 ± 0.05 µM | 153 ± 0.1 µM | >266.7 | > 50 µM | 94.6% | solubility (physchem): 1.43 µg/mL (≈ 5.78 µM); CL/F ([3]; plasma, 5 mg/kg i.p.): 31.2 mL/min/kg; Vd/F ([3]; plasma, 5 mg/kg i.p., read-out: Vz/F): 98 ± 186 L/kg; half-life ([3]; plasma, 5 mg/kg i.p., read-out: t1/2,z (converted)): 37 ± 60 h; Cmax ([3]; in vivo, 5 mg/kg): 770 ± 120 nM; Tmax ([3]; in vivo, 5 mg/kg): 0.333 h; concentration at 24 h ([3]; in vivo, 5 mg/kg): 120 ± 40 nM |
| CC(C)C(=O)OC[C@H]1O[C@@H](n2ccc(NO)nc2=O)[C@H](O)[C@@H]1O [Molnupiravir] |  |  |  |  |  |  | EC50 (SARS-CoV-2): 1.96 µM |
| CCOC(=O)c1ccc2[nH]c3c(c2c1)C(=O)c1ccccc1C3=O [4f, Ethyl 6,11-dioxo-6,11-dihydro-5H-benzo[b]carbazole-2-carboxylate] |  |  |  |  |  | 64% | Inhibition of Viral Replication in Calu-3 (%) ([4]; 10 µM): 64% |
| COc1cccc2c3c([nH]c12)C(=O)c1ccccc1C3=O [4d, 4-Methoxy-5H-benzo[b]carbazole-6,11-dione] | > 200 µM | > 200 µM | 190.8 ± 0.1 µM | >141.8 | > 50 µM | 86.5% | inhibition at 10 µM [5, 8]: 8.1% |
| COc1cc(OC)c2[nH]c3c(c2c1)C(=O)c1ccccc1C3=O [4e, 2,4-Dimethoxy-5H-benzo[b]carbazole-6,11-dione] |  |  |  |  |  | 47.1% | inhibition at 10 µM [5, 8]: 47.4% |
| COc1ccc2[nH]c3c(c2c1)C(=O)c1ccccc1C3=O [4b, 2-Methoxy-5H-benzo[b]carbazole-6,11-dione] | > 200 µM | 0.37 ± 0.05 µM | 72.1 ± 0.1 µM | >119.0 | > 50 µM | 96.2% | difference in SARS-CoV-2 inhibition compared to compound 4a ([4]; 10 µM): no significant change |
| CCC(CC)COC(=O)[C@H](C)N[P@](=O)(OC[C@H]1O[C@@](C#N)(c2ccc3c(N)ncnn23)[C@H](O)[C@@H]1O)Oc1ccccc1 [Remdesivir] |  |  |  |  |  |  | EC50 (SARS-CoV-2): 2.49 µM |
| O=C1c2ccccc2C(=O)c2c1[nH]c1ccc(F)cc21 [4g, 2-Fluoro-5H-benzo[b]carbazole-6,11-dione] |  |  |  |  |  | 69.4% | Inhibition of Viral Replication in Calu-3 (%) ([4]; 10 µM): 69% |
| Cc1ccc2[nH]c3c(c2c1)C(=O)c1ccccc1C3=O [4c, 2-Methyl-5H-benzo[b]carbazole-6,11-dione] |  |  |  |  |  |  | Inhibition of Viral Replication in Calu-3 (%) ([4]; 10 µM): ineffective |
| O=C1c2ccccc2C(=O)c2c1[nH]c1c2ccc2ccccc21 [4i, 7H-Dibenzo[a,h]carbazole-7,12(13H)-dione] | > 200 µM | > 200 µM | 148.7 ± 0.6 µM | >53.7 | > 50 µM | 85.9% | viability at 72 h, 100 µM (in vitro): 68%; EC50 [4]: 3.73 ± 0.6 µM; EC50 [5]: < 4 µM |
| COc1cc2[nH]c3ccccc3c2cc1C=O [O-Methylmukonal] |  |  |  |  |  |  | EC50 (HIV-1): 12 µM |
| COC(=O)N[C@H](C(=O)N[C@@H](Cc1ccccc1)[C@@H](O)CN(Cc1ccc(-c2ccccn2)cc1)NC(=O)[C@@H](NC(=O)OC)C(C)(C)C)C(C)(C)C [Atazanavir] |  |  |  |  |  |  | free fraction, experimental data [6]: 14% |
